Tested on: TERT-RPE1
Test: Here: values are normalized to the negative (DMSO; defined as 0% autophagy induction) and positive (250nM Torin1; mTOR inhibitor; defined as maximal inducer of autophagy = 100%) control compounds and represented as % of autophagy induction. […] The impact of autophagy induction on cells is complex and depends on the affected target. As such, the magnitude of a phenotype may not be equally mirrored in the %-value of autophagy induction and vice versa. The dynamics of the induction may indicate the mode of activation: e.g. activation via phosphorylation or a signaling cascade may occur fast, while activation via transcription factors may take considerably longer. […] Of note, treatment concentrations may be sub-optimal for specific compounds, leading to false negative annotations.
Assay type: functional, Homo sapiens
Details: Culturing Media DMEM/F12 (1:1), 1 % Penicillin/Streptomycin, 10% Fetal bovin serum Add-On: No, Screening Media Control DMEM/F12 (1:1), Screening Media Samples DMEM/F12 (1:1)
[1] = Compound Concentration 1 uM, Timepoint 12 hours
[2] = Compound Concentration 1 uM, Timepoint 24 hours
[3] = Compound Concentration 1 uM, Timepoint 36 hours
[4] = Compound Concentration 1 uM, Timepoint 60 hours

Compound	autophagy induction [1] [%]	autophagy induction [2] [%]	autophagy induction [3] [%]	autophagy induction [4] [%]	autophagy induction (Compound Concentration 10 uM, Timepoint 12 hours) [%]	autophagy induction (Compound Concentration 10 uM, Timepoint 24 hours) [%]	autophagy induction (Compound Concentration 10 uM, Timepoint 36 hours) [%]	autophagy induction (Compound Concentration 10 uM, Timepoint 60 hours) [%]
CN1CCN(c2ccc(/C=C(\C#N)c3ccccc3Br)cc2)CC1.Cl.Cl	-7.74	-11.503	-8.5159	1.827	–	–	–	–
C[C@H](CCOc1cccc(CC(=O)O)c1)N(Cc1cccc(C(F)(F)F)c1Cl)CC(c1ccccc1)c1ccccc1.Cl	-13.5866	1.703	15.8521	-16.0779	–	–	–	–
O=S(=O)(c1ccccc1)N(CC(F)(F)F)c1ccc(C(O)(C(F)(F)F)C(F)(F)F)cc1 [T091317]	-11.1926	-0.1715	8.77	-29.9579	–	–	–	–
COC(=O)/C=C/c1cccc(N(Cc2ccc(-c3ccc(N(C)C)cc3)cc2)C(=O)C2CCCCC2)c1 [FEXARAMINE]	-11.8732	0.4959	16.8927	-24.9579	–	–	–	–
CCOC(=O)N1CCC(CN(Cc2ccc(Cl)cc2)Cc2ccc([N+](=O)[O-])s2)C1 (centres undefined) [SR9009]	-2.29	-4.7715	-4.329	-0.7127	–	–	–	–
O=S(=O)(Nc1ccc(C(O)(C(F)(F)F)C(F)(F)F)cc1)c1cccs1	37.5142	-2.586	11.7189	-15.4416	–	–	–	–
CCC(C)N(C)C(=O)c1cc2ccccc2c(-c2ccccc2Cl)n1 (centres undefined) [PK-11195]	–	–	–	–	-6.134	6.633	20.4099	30.5956
CC(C)OC(=O)C1=CN(C(=O)c2ccc(F)c(F)c2)CC(C)(C)c2c1[nH]c1ccccc21 [TUROFEXORATE ISOPROPYL]	-4.447	-6.097	-6.537	2.1006	–	–	–	–
CCCCc1oc2ccccc2c1C(=O)c1cc(I)c(OCCN(CC)CC)c(I)c1.Cl [AMIODARONE HYDROCHLORIDE]	-399.679	-0.6341	14.6432	-20.4662	–	–	–	–
O=C(O)CCCc1cc2cc(Cl)ccc2n1S(=O)(=O)c1ccc2ncsc2c1 [LANIFIBRANOR]	-95.7021	-0.9693	14.6224	-20.9711	–	–	–	–
COc1cccc(Cn2cc(C(=O)Nc3ccc(C)c(S(=O)(=O)N4CCOCC4)c3)c(-c3ccc(C)cc3)n2)c1	-3.785	-6.106	-1.342	-4.917	–	–	–	–
CC(=O)Oc1ccc2c(c1)[C@@]1(C)CCC[C@](C)(C(=O)OC(=O)[C@@]3(C)CCC[C@]4(C)c5cc(OC(C)=O)ccc5CC[C@@H]34)[C@@H]1CC2 [ACETYL PODOCARPIC ACID ANHYDRIDE]	-1.145	-5.055	-3.143	-11.9263	–	–	–	–
CCCc1c(OCCCOc2ccc(OCC(=O)O)cc2)ccc(C(C)=O)c1O	-6.598	-4.053	-2.5514	-8.413	–	–	–	–
CCc1ccc(N(CC(C)C)S(=O)(=O)c2ccc(OCC3CCOCC3)c(CO)c2)cc1 [GSK2981278]	1.382	-2.385	-1.59	5.376	–	–	–	–
O=C(O)c1ccnc(N2CC(O)(c3ccc(OCc4c(-c5c(Cl)cccc5Cl)noc4C4CC4)cc3Cl)C2)c1 [CILOFEXOR]	6.577	4.142	10.1768	9.429	–	–	–	–
CC(C)(Sc1ccc(CCN(CCCCC2CCCCC2)C(=O)NC2CCCCC2)cc1)C(=O)O [GW7647]	-14.4765	-1.331	15.0253	-17.5748	–	–	–	–

Reference: ChEMBL document CHEMBL5724696, “Autophagy assay results for EUbOPEN Chemogenomics Library” (2024)
